{"source": "patent US7695930B2", "about": "“Method for the detection, identification and/or quantification of microoganisms with peptidase activity using phenoxazinone derivatives as enzyme substrates” (Biomerieux, priority 2003, dated 2010)", "test_in_all_cases": "Leucine-peptidase detection on agar medium (Example 11)", "format_in_all_cases": "cell-based", "conditions_in_all_cases": "50 mg/l", "key": {"Candida albicans": {"tested_on": "Candida albicans", "experimental": "(§1) The detection medium was prepared by mixing 1.4 g of biogelytone (bioMérieux), 0.84 g of meat extract (bioMérieux), 2.24 g of NaCl (Merck), 280 μl of a solution of IPTG (isopropylthio-β-D-galactopyranoside, BIOSYNTH) in water (concentration 10 g/l) and 4.2 g of European agar (bioMérieux).\n(§2) The substrate of the invention obtained in Example 2, in which the amino acid is leucine (leucine-9-aminobenzo[a]phenoxazin-5-one or Leu-ABP), or else a substrate of the prior art, which is leucine-aminomethylcoumarin (Leu-AMC, BACHEM), was then added in the following way: 280 ml of osmosed water were added to the medium, and the mixture was melted in a waterbath at 100° C. The mixture was autoclaved for 15 min at 121° C. and cooled to 50° C. in a waterbath.\n(§3) The medium was then poured into Petri dishes.\n(§4) The coloration of these colonies, the diffusion, and also the intensity of this coloration were noted.\n(§5) The results were expressed as intensity of coloration using an arbitrary scale ranging from 0 to 4 as a basis and also as diffusion also using an arbitrary scale ranging from 0 to 4 as a basis."}, "Citrobacter freundii": {"tested_on": "Citrobacter freundii", "experimental": "as §1, §2, §3, §4, §5"}, "Enterobacter cloaccae": {"tested_on": "Enterobacter cloaccae", "experimental": "as §1, §2, §3, §4, §5"}, "Enterococcus faecalis": {"tested_on": "Enterococcus faecalis", "experimental": "as §1, §2, §3, §4, §5"}, "Escherichia coli": {"tested_on": "Escherichia coli", "experimental": "as §1, §2, §3, §4, §5"}, "Klebsellia pneumoniae": {"tested_on": "Klebsellia pneumoniae", "experimental": "as §1, §2, §3, §4, §5"}, "Pseudomonas aeruginosa": {"tested_on": "Pseudomonas aeruginosa", "experimental": "as §1, §2, §3, §4, §5"}, "Serratia marcescens": {"tested_on": "Serratia marcescens", "experimental": "as §1, §2, §3, §4, §5"}, "Staphylococcus aureus": {"tested_on": "Staphylococcus aureus", "experimental": "as §1, §2, §3, §4, §5"}}, "data": [{"molecule": "Cc1cc(=O)oc2cc(NC(=O)[C@@H](N)CC(C)C)ccc12", "note": "[Leu-AMC, leucine-aminomethylcoumarin, reference compound]", "values": [{"measurement": "growth diameter", "setting": "Candida albicans; 24 h", "result": 0.4, "unit": "mm"}, {"measurement": "intensity of coloration, scale 0 to 4", "setting": "Candida albicans; 24 h", "result": 0.25}, {"measurement": "growth diameter", "setting": "Candida albicans; 48 h", "result": 0.5, "unit": "mm"}, {"measurement": "intensity of coloration, scale 0 to 4", "setting": "Candida albicans; 48 h", "result": 1.5}, {"measurement": "growth diameter", "setting": "Citrobacter freundii; 24 h", "result": 0.8, "unit": "mm"}, {"measurement": "intensity of coloration, scale 0 to 4", "setting": "Citrobacter freundii; 24 h", "result": 3}, {"measurement": "growth diameter", "setting": "Citrobacter freundii; 48 h", "result": 1, "unit": "mm"}, {"measurement": "intensity of coloration, scale 0 to 4", "setting": "Citrobacter freundii; 48 h", "result": 3}, {"measurement": "growth diameter", "setting": "Enterobacter cloaccae; 24 h", "result": 0.8, "unit": "mm"}, {"measurement": "intensity of coloration, scale 0 to 4", "setting": "Enterobacter cloaccae; 24 h", "result": 3}, {"measurement": "growth diameter", "setting": "Enterobacter cloaccae; 48 h", "result": 0.8, "unit": "mm"}, {"measurement": "intensity of coloration, scale 0 to 4", "setting": "Enterobacter cloaccae; 48 h", "result": 3}, {"measurement": "growth diameter", "setting": "Enterococcus faecalis; 24 h", "result": 0.4, "unit": "mm"}, {"measurement": "intensity of coloration, scale 0 to 4", "setting": "Enterococcus faecalis; 24 h", "result": 0.5}, {"measurement": "growth diameter", "setting": "Enterococcus faecalis; 48 h", "result": 0.4, "unit": "mm"}, {"measurement": "intensity of coloration, scale 0 to 4", "setting": "Enterococcus faecalis; 48 h", "result": 1.5}, {"measurement": "growth diameter", "setting": "Escherichia coli; 24 h", "result": 1.8, "unit": "mm"}, {"measurement": "intensity of coloration, scale 0 to 4", "setting": "Escherichia coli; 24 h", "result": 3}, {"measurement": "growth diameter", "setting": "Escherichia coli; 48 h", "result": 1.8, "unit": "mm"}, {"measurement": "intensity of coloration, scale 0 to 4", "setting": "Escherichia coli; 48 h", "result": 3}, {"measurement": "growth diameter", "setting": "Klebsellia pneumoniae; 24 h", "result": 1.8, "unit": "mm"}, {"measurement": "intensity of coloration, scale 0 to 4", "setting": "Klebsellia pneumoniae; 24 h", "result": 3}, {"measurement": "growth diameter", "setting": "Klebsellia pneumoniae; 48 h", "result": 1.8, "unit": "mm"}, {"measurement": "intensity of coloration, scale 0 to 4", "setting": "Klebsellia pneumoniae; 48 h", "result": 3}, {"measurement": "growth diameter", "setting": "Pseudomonas aeruginosa; 24 h", "result": 2, "unit": "mm"}, {"measurement": "intensity of coloration, scale 0 to 4", "setting": "Pseudomonas aeruginosa; 24 h", "result": 1}, {"measurement": "growth diameter", "setting": "Pseudomonas aeruginosa; 48 h", "result": 2, "unit": "mm"}, {"measurement": "intensity of coloration, scale 0 to 4", "setting": "Pseudomonas aeruginosa; 48 h", "result": 3}, {"measurement": "growth diameter", "setting": "Serratia marcescens; 24 h", "result": 0.5, "unit": "mm"}, {"measurement": "intensity of coloration, scale 0 to 4", "setting": "Serratia marcescens; 24 h", "result": 2}, {"measurement": "growth diameter", "setting": "Serratia marcescens; 48 h", "result": 0.7, "unit": "mm"}, {"measurement": "intensity of coloration, scale 0 to 4", "setting": "Serratia marcescens; 48 h", "result": 3}, {"measurement": "growth diameter", "setting": "Staphylococcus aureus; 24 h", "result": 1.7, "unit": "mm"}, {"measurement": "intensity of coloration, scale 0 to 4", "setting": "Staphylococcus aureus; 24 h", "result": 2.5}, {"measurement": "growth diameter", "setting": "Staphylococcus aureus; 48 h", "result": 1.7, "unit": "mm"}, {"measurement": "intensity of coloration, scale 0 to 4", "setting": "Staphylococcus aureus; 48 h", "result": 3}]}]}
